Publication PMC8302504, “Efficacy of Fenfluramine and Norfenfluramine Enantiomers and Various Antiepileptic Drugs in a Zebrafish Model of Dravet Syndrome” (Neurochemical Research, 2021)
“Also recorded” adds a separate entry of the source.

Legend:
[1] = system: zebrafish scn1Lab−/− mutant larvae; test: Noninvasive local field potential (LFP) recordings from the optic tectum; type: in vivo, Danio rerio; details: 22 h; for effect on cumulative duration of epileptiform events: Fig. 2B; for effect on frequency of epileptiform events: Fig. 2C
Procedure: (§1) WT and homozygous zebrafish larvae (scn1Lab^−/− mutants) (6 dpf) were treated as described above. After incubation, larvae were immobilized in 2% low-melting-point agarose (Invitrogen) at room temperature (RT) and the epileptiform activities were measured by noninvasive local field potential (LFP) recording from the skin above the optic tectum (midbrain). The single glass electrode filled with artificial cerebrospinal fluid (ACSF) (124 mM NaCl, 2 mM KCl, 2 mM MgSO4, 2 mM CaCl2, 1.25 mM KH2PO4, 26 mM NaHCO3, and 10 mM glucose) was positioned on the skin above the optic tectum. Each recording lasted for 10 min. Epileptiform activity was quantified by using Clampfit 10.2 software (Molecular Devices Corporation, USA60), as reported previously by our group.

WT zebrafish larvae = test: Toxicity evaluation: maximum tolerated concentration (MTC); type: in vivo, Danio rerio; details: WT larvae 6 dpf, 22 h incubation
Procedure: To evaluate the maximum tolerated concentration (MTC) of the individual compounds, a dozen of WT zebrafish larvae (6 dpf) were individually incubated in single wells of a 96-well plate, and treated with two-fold serial dilutions of the compounds. After 22 h incubation under standard conditions (28 °C, 14/10 light/dark cycle), larvae were individually examined for their touch response, posture, edema, signs of necrosis, morphology, heartbeat rate, and swim bladder condition under the microscope.

[2] = system: zebrafish scn1Lab−/− mutant model of DS; test: Overall antiepileptic activity in the zebrafish scn1Lab−/− mutant model (locomotor and LFP read-outs together); type: in vivo, Danio rerio; details: 22 h incubation
Procedure: (§2) WT and homozygous zebrafish larvae (scn1Lab^−/− mutants) (6 dpf) were individually positioned in single wells of a 96-well plate, and incubated in 100 μL VHC or VHC supplemented with compound or combined compounds for 22 h at 28 °C on a 14/10 h light/dark cycle. Then, the plates were placed immediately in an enclosed tracking device (ZebraBox Viewpoint, France), followed by a 30 min chamber habituation and 10 min recording. Locomotor activity over the total tracking period of 10 min was quantified by ZebraLab software (Software Viewpoint, France) using the lardist parameter (total distance in large movements) and 150 bkg (background) as a threshold, as reported previously by our group. For “small/large movement” and “inact/small movement”, a threshold was used of 6.4 and 3.3, respectively. Data were pooled from three or four independent experiments, with at least five larvae for each treatment and 20–30 larvae for each experimental condition, and expressed as “cm” per 100 s.
as §1

[3] = system: zebrafish scn1Lab−/− mutant larvae; test: Locomotor activity measurement (behavioral assay) in the zebrafish DS model; type: in vivo, Danio rerio; details: 22 h; for effect on epileptiform (hyper-)locomotor activity: single treatment at MTC, Fig. 2A
Procedure: as §2

5-HT2B = system: 5-HT2B; design: method as in earlier work; details: 34 (Rothman et al.); cited from earlier work
[4] = system: norepinephrine (NE) release; design: method as in earlier work; details: 34 (Rothman et al.); cited from earlier work
[5] = molecular target: norepinephrine (NE) uptake; design: method as in earlier work; details: 34 (Rothman et al.); read-out: Ki values for uptake inhibition, NE; cited from earlier work
dopamine (DA) release = system: dopamine (DA) release; design: method as in earlier work; details: 34 (Rothman et al.); cited from earlier work
5-HT2C = system: 5-HT2C; design: method as in earlier work; details: 34 (Rothman et al.); cited from earlier work
dopamine (DA) uptake = molecular target: dopamine (DA) uptake; design: method as in earlier work; details: 34 (Rothman et al.); read-out: Ki values for uptake inhibition, DA; cited from earlier work
5-HT2A = system: 5-HT2A; design: method as in earlier work; details: 34 (Rothman et al.); cited from earlier work
[6] = Compound concentration (uptake) in larval zebrafish heads by LC-MS; type: in vivo, Danio rerio; details: immersion at MTC for 30 min, 4 h and 22 h, Fig. 4
Procedure: WT and homozygous zebrafish larvae (scn1Lab^−/− mutants) (6 dpf) were treated as described above. After incubation with compounds, larvae were washed and euthanized by exposure to cold Milli-Q water. Then, the heads of larvae were carefully separated under the microscope, and five heads were transferred collectively into one 1.5 mL Eppendorf tube with acid-washed glass beads (diameter: […], Sigma Aldrich) and 275 µL extraction medium (HPLC grade methanol, Sigma Aldrich). Next, the samples were homogenized by 10 min of ultrasonication (Diagenode Bioruptor Plus, Belgium) at 4 °C. The overall ultrasonication process encompassed 10 cycles of 30 s with pauses of 30 s in-between with high energy input. […]
Quantification was performed through the use of a calibration curve created for each compound separately in blank matrix, which was derived from a pooled set of blank fish heads (n = 40). […] Ranges consisted of at least 5 concentrations, each of which was analyzed in replicate (n = 5). […]
The mean head weight (± S.D.) of a 6 dpf and 7 dpf zebrafish larva was 192 ± 10 µg and 196 ± 13 µg, respectively, as measured by weighing three batches of 50 fresh heads after removing excess water with filter paper. The final uptake was calculated according to the method reported by Copmans et al., and expressed as amount/head weight (µg/g).

serotonin uptake = molecular target: serotonin uptake; design: method as in earlier work; details: 34 (Rothman et al.); read-out: Ki values for uptake inhibition, 5-HT; cited from earlier work
[7] = system: 5-HT transporter proteins; design: method as in earlier work; details: 34 (Rothman et al.); read-out: EC50 values for release, 5-HT; cited from earlier work
[8] = system: DS zebrafish mutant model; design: method as in PMID 29335539; details: cited from earlier work

CC1(C)O[C@@H]2[C@@H](CO[C@@]3(COS(N)(=O)=O)OC(C)(C)O[C@@H]23)O1 [TPM, topiramate]
effect on cumulative duration of epileptiform events ([1]; single treatment at MTC): decrease | effect on frequency of epileptiform events ([1]; single treatment at MTC): dramatically attenuated | maximum tolerated concentration (MTC) (WT zebrafish larvae): 200 µM | antiepileptic activity in the model (overall) [2]: pronounced therapeutic activity | effect on epileptiform (hyper-)locomotor activity [3]: significantly counteracted

CCNC(C)Cc1cccc(C(F)(F)F)c1 (racemic) [(±)-FFA, (±)-Fenfluramine]
effect on epileptiform brain discharges ([1]; (±)-FFA single treatment at 3.13 µM, Fig. 3E, F): not on the epileptiform brain discharges | effect on cumulative duration of epileptiform events ([1]; single treatment at MTC): decrease | effect on frequency of epileptiform events ([1]; single treatment at MTC): dramatically attenuated | maximum tolerated concentration (MTC) (WT zebrafish larvae): 50 µM | effect on locomotor activity ([3]; (±)-FFA single treatment at 3.13 µM, Fig. 3D): significant effect | effect on epileptiform (hyper-)locomotor activity [3]: significantly counteracted

CCN[C@H](C)Cc1cccc(C(F)(F)F)c1 [(−)-FFA]
Kact values for 5-HT2 receptor subtypes, 5-HT2B (5-HT2B): 1248 ± 252 nM | EC50 [4]: > 10000 nM | Ki [5]: 7.19 ± 0.559 µM | EC50 (dopamine (DA) release): > 10000 nM | Kact values for 5-HT2 receptor subtypes, 5-HT2C (5-HT2C): 360 ± 91 nM | antiepileptic activity in the model (overall) [2]: significant antiepileptic effects | Ki (dopamine (DA) uptake): > 20000 nM

C[C@H](N)Cc1cccc(C(F)(F)F)c1 [(+)-norFFA]
Kact values for 5-HT2 receptor subtypes, 5-HT2A (5-HT2A): 630 ± 141 nM | Kact values for 5-HT2 receptor subtypes, 5-HT2B (5-HT2B): 18.4 ± 5.3 nM | EC50 [4]: 72.7 ± 5.4 nM | Ki [5]: 0.205 ± 0.019 µM | EC50 (dopamine (DA) release): 924 ± 112 nM | Kact values for 5-HT2 receptor subtypes, 5-HT2C (5-HT2C): 13 ± 2.4 nM | total uptake in larval heads (amount of compound/head weight) [6]: somewhat similar uptake; also recorded: taken up less than the parent compound | antiepileptic activity in the model (overall) [2]: more consistent and concentration-dependent; also recorded: significant antiepileptic effects | Ki (serotonin uptake): 214 ± 9 nM | Ki (dopamine (DA) uptake): 2310 ± 87 nM | EC50 [7]: 59.3 ± 2.4 nM

CN1C(=O)CC(=O)N(c2ccccc2)c2cc(Cl)ccc21 [CLB, clobazam]
effect on epileptiform brain discharges ([1]; single treatment at MTC): failed to rescue | maximum tolerated concentration (MTC) (WT zebrafish larvae): 100 µM | efficacy in the DS zebrafish mutant model [8]: ineffective | effect on epileptiform (hyper-)locomotor activity [3]: failed to rescue

Nc1nnc(-c2cccc(Cl)c2Cl)c(N)n1 [LTG, lamotrigine]
effect on epileptiform brain discharges ([1]; single treatment at MTC): no inhibitory effects | maximum tolerated concentration (MTC) (WT zebrafish larvae): 100 µM | effect on epileptiform (hyper-)locomotor activity [3]: no inhibitory effects

NC(=O)N1c2ccccc2C=Cc2ccccc21 [CBZ, carbamazepine]
effect on epileptiform brain discharges ([1]; single treatment at MTC): no inhibitory effects | maximum tolerated concentration (MTC) (WT zebrafish larvae): 50 µM | effect on epileptiform (hyper-)locomotor activity [3]: no inhibitory effects
